In ChEMBL document CHEMBL6096675 (J Med Chem, 2025):
pIC50: −log10 of the molar value. Active and inactive are the calls of the source. The calls are words filed in the database; no cut-off is given here.

Assays:
[1] = Antiproliferative activity against human […] NCI-H1975 cells assessed as maximal inhibition of cell growth measured after 7 days by WST-8 assay relative to control; assay type: functional; conditions: time 7 day
NCI-H1792 = assay: Antiproliferative activity against human SMARCA4-wild type NCI-H1792 cells assessed as inhibition of cell growth measured after 7 days by WST-8 assay; assay type: functional; conditions: NCI-H1792, 168 h, time 7 day
Cytochrome P450 2C8 = target: T1, Cytochrome P450 2C8 (Homo sapiens, UniProt P10632); assay: Inhibition of CYP2C8 (unknown origin); assay type: ADME
T1 sequence (P10632 whole entry): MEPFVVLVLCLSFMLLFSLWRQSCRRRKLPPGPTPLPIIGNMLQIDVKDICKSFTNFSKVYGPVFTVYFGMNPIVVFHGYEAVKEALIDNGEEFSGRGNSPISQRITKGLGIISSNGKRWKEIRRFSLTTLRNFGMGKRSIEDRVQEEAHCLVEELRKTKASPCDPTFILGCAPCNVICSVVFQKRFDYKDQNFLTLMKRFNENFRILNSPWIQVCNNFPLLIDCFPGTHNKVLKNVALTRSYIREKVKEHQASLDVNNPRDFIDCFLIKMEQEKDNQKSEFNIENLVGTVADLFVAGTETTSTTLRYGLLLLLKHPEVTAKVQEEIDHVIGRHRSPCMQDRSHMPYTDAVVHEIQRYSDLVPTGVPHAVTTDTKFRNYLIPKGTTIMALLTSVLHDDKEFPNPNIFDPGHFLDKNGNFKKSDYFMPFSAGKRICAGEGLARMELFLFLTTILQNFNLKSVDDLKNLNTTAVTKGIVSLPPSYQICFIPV

Cytochrome P450 1A2 = target: T2, Cytochrome P450 1A2 (Homo sapiens, UniProt P05177); assay: Inhibition of CYP1A2 (unknown origin); assay type: ADME
T2 sequence (P05177 whole entry): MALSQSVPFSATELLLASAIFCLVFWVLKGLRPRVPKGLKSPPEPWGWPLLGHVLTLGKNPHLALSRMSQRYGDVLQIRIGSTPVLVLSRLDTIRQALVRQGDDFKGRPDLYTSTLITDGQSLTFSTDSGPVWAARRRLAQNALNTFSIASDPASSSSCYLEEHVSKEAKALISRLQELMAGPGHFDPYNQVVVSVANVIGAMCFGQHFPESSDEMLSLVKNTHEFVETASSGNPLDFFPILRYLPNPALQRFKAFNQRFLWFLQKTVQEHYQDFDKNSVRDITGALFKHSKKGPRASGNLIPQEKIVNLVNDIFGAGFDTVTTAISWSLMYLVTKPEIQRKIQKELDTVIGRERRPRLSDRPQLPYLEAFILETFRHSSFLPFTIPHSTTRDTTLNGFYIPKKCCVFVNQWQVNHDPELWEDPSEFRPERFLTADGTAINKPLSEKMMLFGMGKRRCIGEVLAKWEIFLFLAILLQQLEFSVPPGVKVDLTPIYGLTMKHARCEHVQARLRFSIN

[2] = Antiproliferative activity against human SMARCA4-deficient NCI-H1944 cells assessed as maximal inhibition of cell growth measured after 7 days by WST-8 assay relative to control; assay type: functional; conditions: time 7 day
[3] = Antiproliferative activity against human SMARCA4-deficient NCI-H1693 cells assessed as inhibition of cell growth measured after 7 days by WST-8 assay; assay type: functional; conditions: NCI-H1693, 168 h, time 7 day
[4] = Antiproliferative activity against human SMARCA4-deficient NCI-H1944 cells assessed as inhibition of cell growth measured after 7 days by WST-8 assay; assay type: functional; conditions: NCI-H1944, 168 h, time 7 day
[5] = Plasma concentration in mouse xenografted with human H838 cells at 10 mg/kg, iv single dose measured after 6 hrs by LC-MS/MS analysis; assay type: ADME, organism-based, NCI-H838
[6] = Antiproliferative activity against human SMARCA4-deficient NCI-H1568 cells assessed as inhibition of cell growth measured after 7 days by WST-8 assay; assay type: functional; conditions: NCI-H1568, 168 h, time 7 day
SK-MEL-28 [7] = assay: Antiproliferative activity against human SMARCA4-wild type SK-MEL-28 cells assessed as maximal inhibition of cell growth measured after 7 days by WST-8 assay relative to control; assay type: functional; conditions: time 7 day
[8] = Toxicity in SCID mouse xenografted with human H838 cells assessed as toxicity signs at 30 mg/kg, iv measured after 3 weeks; assay type: organism-based; conditions: in vivo, 504 h
[9] = Plasma concentration in SCID mouse xenografted with human NCI-H838 cells at 10 mg/kg, iv measured after 168 hrs by LC-MS/MS analysis; assay type: ADME, organism-based; conditions: in vivo, iv, 10 mg/kg, 168 h
SK-MEL-5 = assay: Antiproliferative activity against human SMARCA4-deficient SK-MEL-5 cells assessed as inhibition of cell growth measured after 7 days by WST-8 assay; assay type: functional; conditions: SK-MEL-5, 168 h, time 7 day
Cytochrome P450 2D6 = Cytochrome P450 2D6 (Homo sapiens, UniProt P10635); assay: Inhibition of CYP2D6 (unknown origin); assay type: ADME
[10] = Toxicity in SCID mouse xenografted with human H838 cells assessed as body weight loss at 30 mg/kg, iv measured after 3 weeks; assay type: organism-based; conditions: in vivo, 504 h
[11] = Clearance in rat at 1 mg/kg, iv; assay type: ADME, organism-based; conditions: in vivo
NCI-H838 [12] = assay: In vivo anti-tumor activity against human NCI-H838 cells xenografted in SCID mouse assessed as assessed as inhibition of tumor growth at 10 mg/kg, iv treated for 3 weeks measured after treatment stop; assay type: functional, organism-based
[13] = Drug uptake in tumor of mouse xenografted with human MV4-11 cells at 30 mg/kg, iv single dose measured after 168 hrs by LC-MS/MS analysis; assay type: ADME, organism-based, Neoplasm; conditions: read-out: Drug uptake
SK-MEL-28 [14] = assay: Antiproliferative activity against human SMARCA4-wild type SK-MEL-28 cells assessed as inhibition of cell growth measured after 7 days by WST-8 assay; assay type: functional; conditions: SK-MEL-28, 168 h, time 7 day
[15] = Drug uptake in tumor of mouse xenografted with human MV4-11 cells at 30 mg/kg, iv single dose measured after 96 hrs by LC-MS/MS analysis; assay type: ADME, organism-based, Neoplasm; conditions: read-out: Drug uptake
[16] = Metabolic stability in mouse liver microsomes assessed as half life; assay type: ADME, Microsome
[17] = Metabolic stability in human liver microsomes assessed as half life; assay type: ADME, Microsome
[18] = Drug uptake in tumor of mouse xenografted with human H838 cells at 10 mg/kg, iv single dose measured after 48 hrs by LC-MS/MS analysis; assay type: ADME, organism-based, Neoplasm, NCI-H838; conditions: read-out: Drug uptake
[19] = Plasma concentration in SCID mouse xenografted with human NCI-H838 cells at 10 mg/kg, iv measured after 48 hrs by LC-MS/MS analysis; assay type: ADME, organism-based
NCI-H838 [20] = assay: In vivo anti-tumor activity against human NCI-H838 cells xenografted in SCID mouse assessed as assessed as inhibition of tumor growth at 30 mg/kg, iv measured after 3 weeks relative to control; assay type: functional; conditions: NCI-H838, 504 h, read-out: TGI
[21] = Plasma concentration in mouse xenografted with human MV4-11 cells at 30 mg/kg, iv single dose measured after 96 hrs by LC-MS/MS analysis; assay type: ADME, organism-based
[22] = Drug uptake in tumor of human NCI-H838 cells xenografted SCID mouse model at 10 mg/kg, iv measured after 24 hrs by LC-MS/MS analysis; assay type: ADME, organism-based, Neoplasm; conditions: read-out: Drug uptake

Sequence of Cytochrome P450 2D6 (P10635 whole entry): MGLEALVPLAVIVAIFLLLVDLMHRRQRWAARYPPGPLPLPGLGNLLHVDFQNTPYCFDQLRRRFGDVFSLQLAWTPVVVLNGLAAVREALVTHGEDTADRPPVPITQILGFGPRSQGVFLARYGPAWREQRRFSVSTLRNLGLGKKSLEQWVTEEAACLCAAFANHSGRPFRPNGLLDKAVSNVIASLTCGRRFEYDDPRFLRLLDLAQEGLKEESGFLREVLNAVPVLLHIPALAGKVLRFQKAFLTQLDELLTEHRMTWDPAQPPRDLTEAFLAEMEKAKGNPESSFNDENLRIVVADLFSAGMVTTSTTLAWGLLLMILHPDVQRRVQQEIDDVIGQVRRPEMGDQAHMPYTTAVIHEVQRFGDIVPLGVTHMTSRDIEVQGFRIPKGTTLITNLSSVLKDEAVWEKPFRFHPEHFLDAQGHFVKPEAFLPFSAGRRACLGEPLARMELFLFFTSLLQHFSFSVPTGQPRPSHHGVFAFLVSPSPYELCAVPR

GI50 (NCI-H1792): > 10000 nM | pIC50 (Cytochrome P450 2C8): < 4.00 | pIC50 (Cytochrome P450 1A2): < 4.00 | concentration at 6 h [5]: 585 ng/mL | Cp [9]: Below_limit_of_detection | GI50 (SK-MEL-5): 1.5 nM | pIC50 (Cytochrome P450 2D6): < 4.00 | clearance [11]: 22 mL/min/kg | concentration at 168 h [13]: 932 ng/mL | GI50 (SK-MEL-28 [14]): > 10000 nM | concentration at 96 h [15]: 1640 ng/mL | half-life [16]: > 1 h | half-life [17]: > 1 h | concentration at 48 h [18]: 437 ng/mL | concentration at 48 h [19]: 15 ng/mL | concentration at 96 h [21]: 56 ng/mL | concentration at 24 h [22]: 400 ng/mL
SMILES: Cc1ncsc1-c1ccc([C@H](CN2CCOCC2)NC(=O)[C@@H]2C[C@@H](O)CN2C(=O)[C@@H](n2cc([C@H]3CC[C@H](CN4CCC(c5ccc6c(c5)-n5c(nc(=O)c7c(Cl)cccc75)C65CCCCC5)CC4)CC3)nn2)C(C)(C)C)cc1
Imax [1]: 65% | Imax [2]: 71% | GI50 [3]: 4.8 nM | GI50 [4]: 9.8 nM | GI50 [6]: 2.2 nM | Imax (SK-MEL-28 [7]): 55% | Activity [8]: Non-toxic | Activity [10]: Non-toxic | Activity (NCI-H838 [12]): inactive | inhibition in vivo at 30 mg/kg (NCI-H838 [20]): 91%
